Test results from US10369161B2, “Use of 2-methylene-19-NOR-(20S)-1-alpha,25-dihydroxyvitamin D3 to treat primary hyperparathyroidism” (Wisconsin Alumni Research Foundation, priority 2014, dated 2019).

How the values were obtained:
Assay type in all cases: in vivo, human
[1] = Phase 1B Dose-Finding Study in Postmenopausal Women: serum calcium levels; conditions: baseline vs 28 days, orally once daily, subjects with >60 pg/ml serum PTH at baseline
Method: (§1) Reference is made to Zella et al., “Novel, Selective Vitamin D Analog Suppresses Parathyroid Hormone in Uremic Animals and Postmenopausal Women, Am J. Nephrology 2014; 39:476-483, May 17, 2014, the content of which is incorporated herein by reference in its entirety. Zella et al. discloses the results from a Phase 1B Dose-Finding Study in Postmenopausal Women in which the participants were administered various doses of 2MD and afterwards, serum parathyroid hormone (PTH) levels and serum calcium levels were monitored. In Zella et al.'s study, post-menopausal women were treated orally once daily with 2MD, calcitriol, or placebo for 28 days. Serum samples for PTH analysis were collected at baseline and 2, 7, 14, and 28 days after the first dose was administered.
(§2) In FIG. 1 of the present application, the results from the Phase 1B Dose-Finding Study in Postmenopausal Women from Zella et al. were plotted using only data from subjects that would be classified as having primary hyperparathyroidism or on a watch list for having primary hyperparathyroidism (i.e., subjects having >60 pg/ml serum PTH at baseline). In FIG. 1, the number of subjects administered each dose of 2MD, calcitriol, or placebo, consisted of the following: 0.05 μg 2MD-2 subjects, 0.11 μg 2MD-3 subjects; 0.17 μg 2MD-4 subjects; 0.44 μg 2MD-2 subjects; 0.5 μg calcitriol-1 subject; and placebo-1 subject. […]

[2] = tested on: serum parathyroid hormone (PTH); test: Phase 1B Dose-Finding Study in Postmenopausal Women: serum PTH in subjects with >60 pg/ml serum PTH at baseline; conditions: after 28 days
Method: as §1
In FIG. 1 of the present application, the results from the Phase 1B Dose-Finding Study in Postmenopausal Women from Zella et al. were plotted using only data from subjects that would be classified as having primary hyperparathyroidism or on a watch list for having primary hyperparathyroidism (i.e., subjects having >60 pg/ml serum PTH at baseline). In FIG. 1, the number of subjects administered each dose of 2MD, calcitriol, or placebo, consisted of the following: 0.05 μg 2MD-2 subjects, 0.11 μg 2MD-3 subjects; 0.17 μg 2MD-4 subjects; 0.44 μg 2MD-2 subjects; 0.5 μg calcitriol-1 subject; and placebo-1 subject. As indicated, PTH levels in the subjects administered 2MD at: doses of 0.11 μg, 0.17 μg, and 0.4 μg decreased over time at a level corresponding, to the dose of 2MD. After 28 days, a dose of 2MD of 0.11 μg, 0.17 μg, and. […] (See FIG. 2 and FIG. 3). In summary, 2MD could be administered orally at a daily dose of 0.11 μg-0.44 μg to treat subjects having primary hyperparathyroidism or at risk, for developing primary hyperparathyroidism.

[3] = Phase 1B Dose-Finding Study in Postmenopausal Women: serum phosphate levels; conditions: baseline vs 28 days, orally once daily, subjects with >60 pg/ml serum PTH at baseline
Method: as §1, §2

rise in serum calcium levels [1]	SMILES	increase in PTH ([2]; 0.05 μg orally once daily)	decrease in PTH ([2]; 0.11 μg orally once daily)	decrease in PTH ([2]; 0.17 μg orally once daily)	decrease in PTH ([2]; 0.4 μg orally once daily)	rise in serum phosphate levels [3]	increase in PTH ([2]; 0.5 μg orally once daily)
without increasing serum calcium	C=C1[C@H](O)CC(=C/C=C2\CCC[C@@]3(C)C2CCC3[C@@H](C)CCCC(C)(C)O)C[C@H]1O (stereo partly drawn) [2MD, 2-methylene-19-nor-(20S)-1α,25-dihydroxyvitamin D3]	16%	−7%	−31%	−44%	without increasing serum calcium or serum phosphate	
	C=C1/C(=C\C=C2/CCC[C@]3(C)[C@@H]([C@H](C)CCCC(C)(C)O)CC[C@@H]23)C[C@@H](O)C[C@@H]1O [calcitriol, reference compound]						15%
